In patent US8859596B2, “Compounds as cannabinoid receptor ligands” (priority 2008, dated 2014):
Where two headings read alike, the source gives them in different places.

Columns and labels:
mice = conditions: cited from earlier work
[1] = acute thermal, persistent, inflammatory, neuropathic pain models; cited from earlier work
[2] = neuropathic, incisional, chronic and acute inflammatory pain; cited from earlier work
[3] = test system: apolipoprotein E knockout mice; conditions: low doses; cited from earlier work
rat = rat formalin model; cited from earlier work
rat CB2 [4] = target: T1, rat CB2 (Rattus norvegicus (Rat), UniProt Q9QZN9); experiment: CB2 cyclase functional assay (HitHunter cAMP); type: cell-based; conditions: HEK cells, forskolin 18 μM
Experimental: (§1) The cyclase functional assays were performed using the HitHunter™ cAMP assay kit from DiscoveRx (Fremont, Calif.) according to vendor's protocol. Briefly, HEK cells expressing CB2 or CB1 receptors (rat or human) were detached using cell dissociation buffer (Invitrogen, Carlsbad, Calif.), dispersed and placed in suspension at 10,000 cells per well in 96 well plates prior to the assay. Cell suspensions were incubated at 37° C. for 20 min with variable concentrations of test ligands and or 10 μM CP 55,940-positive control in the presence of a fixed concentration of forskolin (18 μM for rat CB2 and 37 μM for rat CB1) in Dulbescco's phosphate-buffered saline (Invitrogen, Carlsbad, Calif.) supplemented with bovine serum albumin (0.01% final concentration). The reactions were terminated by the addition of lysis buffer and the luminescence was detected following the procedure according to the manufacturer's instructions. EC50 values were calculated using sigmoidal dose-response curve fitting from Prism (GraphPad).

human CB2 receptors = human CB2 receptors (Homo sapiens (Human), UniProt P34972); experiment: human CB2 radioligand binding assay ([3H]CP 55,940 competition)
Summary of the method: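 Displacement of 0.5 nM [3H]CP 55,940 over 0.01 nM-10 μM test compound, measured on human CB2 membranes from stably transfected HEK293 cells. Incubation 90 min at 30 °C in Tris/EDTA/MgCl2/BSA, pH 7.4, then filter-bound radioactivity counted; 10 μM unlabeled CP 55,940 defined nonspecific binding.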

rat CB2 [5] = target: T1, rat CB2; experiment: rat CB2 radioligand binding assay ([3H]CP 55,940 competition)
Summary of the method: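 Membranes from HEK293 cells stably expressing rat CB2 (20 μg protein/well) competed with 0.5 nM [3H]CP 55,940 and five displacer concentrations, 45 min at 30° C in Tris/EDTA/MgCl2/BSA buffer pH 7.4. Filtration and scintillation counting; nonspecific binding with 10 μM unlabeled CP 55,940.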

rat CB1 = rat CB1 (Rattus norvegicus (Rat), UniProt P20272); experiment: CB1 cyclase functional assay (HitHunter cAMP); type: cell-based; conditions: HEK cells, forskolin 37 μM; read-out: rCB1 cyclase (EC50)
Experimental: as §1

[6] = test system: β-amyloid-induced microglial activation; conditions: in vitro; cited from earlier work
[7] = HEK293 membranes, 0.5 nM [3H]CP 55,940, read-out: human CB2 (Ki)
[8] = HEK293 membranes, 0.5 nM [3H]CP 55,940, read-out: rat CB2 (Ki)

T1 sequence (Q9QZN9 whole entry): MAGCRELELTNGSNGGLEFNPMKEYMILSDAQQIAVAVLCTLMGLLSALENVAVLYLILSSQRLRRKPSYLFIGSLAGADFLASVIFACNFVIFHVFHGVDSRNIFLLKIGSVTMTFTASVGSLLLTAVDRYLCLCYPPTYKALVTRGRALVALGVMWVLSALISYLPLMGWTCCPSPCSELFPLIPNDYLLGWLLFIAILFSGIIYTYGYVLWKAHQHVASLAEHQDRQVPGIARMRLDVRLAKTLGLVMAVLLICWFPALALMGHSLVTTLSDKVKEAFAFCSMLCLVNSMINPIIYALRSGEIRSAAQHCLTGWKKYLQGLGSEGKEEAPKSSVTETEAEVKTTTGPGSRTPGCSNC
human CB2 receptors, sequence (P34972 whole entry): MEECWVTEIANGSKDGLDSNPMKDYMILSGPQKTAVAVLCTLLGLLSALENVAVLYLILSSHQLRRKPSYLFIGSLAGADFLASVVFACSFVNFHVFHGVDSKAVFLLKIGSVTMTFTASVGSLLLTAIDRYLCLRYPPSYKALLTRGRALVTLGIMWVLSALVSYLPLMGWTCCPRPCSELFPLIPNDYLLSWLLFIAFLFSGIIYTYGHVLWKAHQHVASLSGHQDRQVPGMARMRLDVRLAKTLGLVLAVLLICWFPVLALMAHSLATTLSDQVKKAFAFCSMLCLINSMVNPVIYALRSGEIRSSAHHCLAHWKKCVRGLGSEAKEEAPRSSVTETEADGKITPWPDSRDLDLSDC

Molecule	EC50 (rat CB2 [4]) [nM]	EC50 (rat CB1) [nM]	Ki (human CB2 receptors; [7]) [nM]	Ki (rat CB2 [5]; [8]) [nM]	other results
SR144528	–	–	–	–	effect on osteoclast activity and ovariectomy-induced bone loss (mice): inhibit osteoclast activity and reverse ovariectomy-induced bone loss
CN1CCCCC1Cn1cc(C(=O)c2cc([N+](=O)[O-])ccc2I)c2ccccc21 (stereo not shown) [AM-1241]	–	–	–	–	analgesic efficacy [1]: robust analgesic efficacy
COc1ccc2c(c1)c(CCN1CCOCC1)c(C)n2C(=O)c1cccc(Cl)c1Cl [GW405833]	–	–	–	–	efficacy in pain models [2]: efficacious
(−)-Δ^9-Tetrahydrocannabinol [THC]	–	–	–	–	effect on progression of atherosclerotic lesions [3]: slowed the progression of atherosclerotic lesions
CCCCCCC(C)(C)c1cc(OC)c([C@@H]2C=C(CO)[C@@H]3C[C@H]2C3(C)C)c(OC)c1 [HU-308]	–	–	–	–	antinociceptive response (rat): elicits an antinociceptive response
CCCCn1nc(C(C)(C)C)s/c1=N\C(=O)c1cc(C(F)(F)F)ccc1ONC(=O)OC(C)(C)C [Example 141, tert-butyl 2-({[(2Z)-3-butyl-5-tert-butyl-1,3,4-thiadiazol-2(3H)-ylidene]amino}carbonyl)-4-(trifluoromethyl)phenoxycarbamate]	1.12	273	–	–	Ki (human CB2 receptors): 0.32 nM; Ki (rat CB2 [5]): 2.3 nM
CCCCn1nc(C(C)(C)C)s/c1=N\C(=O)c1cc(C(F)(F)F)ccc1ONC(C)C [Example 144, N-[(2Z)-3-butyl-5-tert-butyl-1,3,4-thiadiazol-2(3H)-ylidene]-2-[(isopropylamino)oxy]-5-(trifluoromethyl)benzamide]	0.22	415	0.6	0.8	–
CC(C)(C)NOc1ccc(C(F)(F)F)cc1C(=O)/N=c1\sc(C(C)(C)C)nn1CCCC(F)(F)F [Example 164, 2-[(tert-butylamino)oxy]-N-[(2Z)-5-tert-butyl-3-(4,4,4-trifluorobutyl)-1,3,4-thiadiazol-2(3H)-ylidene]-5-(trifluoromethyl)benzamide]	0.28	1020	1.8	0.3	–
CCCC(C)(C)c1ccc2c(c1)OC(C)(C)[C@@H]1CC=C(C)C[C@@H]21 [JWH-133]	–	–	–	–	effect on β-amyloid-induced microglial activation and neurotoxicity [6]: abrogated β-amyloid-induced microglial activation and neurotoxicity
CCCCn1nc(C(C)(C)C)s/c1=N\C(=O)c1cc(C(F)(F)F)ccc1ONC(C)(C)C [Example 34, 2-[(tert-butylamino)oxy]-N-[(2Z)-3-butyl-5-tert-butyl-1,3,4-thiadiazol-2(3H)-ylidene]-5-(trifluoromethyl)benzamide]	0.43	> 27000	11	1.9	–
